Tests used:
human PEPT1 = target: T1, human PEPT1 (Homo sapiens, UniProt P46059); assay: Electrogenic transport (induced current) in Xenopus oocytes transfected with human PEPT1; type: cell-based
T1 construct: Rat and human PEPT1 and PEPT2 transporter cDNAs were subcloned into a modified pGEM plasmid; expressed in transfected cells; host or cells: Xenopus laevis oocytes injected with in vitro transcribed RNA
T1 sequence (P46059 1-708): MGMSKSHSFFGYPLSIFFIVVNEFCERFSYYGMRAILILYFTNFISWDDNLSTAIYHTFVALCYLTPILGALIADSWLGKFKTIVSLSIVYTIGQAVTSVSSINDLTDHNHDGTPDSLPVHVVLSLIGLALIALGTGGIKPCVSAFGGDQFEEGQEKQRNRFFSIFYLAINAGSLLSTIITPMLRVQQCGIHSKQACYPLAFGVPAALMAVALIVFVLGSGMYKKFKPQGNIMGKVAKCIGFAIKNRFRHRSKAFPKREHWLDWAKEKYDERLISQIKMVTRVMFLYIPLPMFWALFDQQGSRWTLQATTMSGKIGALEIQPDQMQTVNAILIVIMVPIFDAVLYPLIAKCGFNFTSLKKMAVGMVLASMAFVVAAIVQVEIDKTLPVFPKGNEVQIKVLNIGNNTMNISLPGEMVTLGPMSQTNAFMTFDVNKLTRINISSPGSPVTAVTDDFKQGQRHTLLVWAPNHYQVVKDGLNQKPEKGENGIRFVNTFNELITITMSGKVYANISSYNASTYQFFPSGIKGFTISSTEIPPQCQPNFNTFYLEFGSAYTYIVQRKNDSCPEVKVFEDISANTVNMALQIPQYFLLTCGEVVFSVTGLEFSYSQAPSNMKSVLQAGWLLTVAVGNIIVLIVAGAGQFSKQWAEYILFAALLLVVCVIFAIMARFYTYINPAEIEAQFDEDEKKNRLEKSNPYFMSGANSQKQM
Protocol: Rat and human PEPT1 and PEPT2 expressing CHO cell lines were prepared as described in PCT Application WO01/20331. Gabapentin-containing dipeptides were evaluated for interaction with the peptide transporters using a radiolabeled substrate uptake assay in a competitive inhibition format, as described in PCT Application WO01/20331. Transport-induced currents were also measured in Xenopus oocytes transfected with rat and human PEPT1 and PEPT2.
RNA preparation: Rat and human PEPT1 and PEPT2 transporter cDNAs were subcloned into a modified pGEM plasmid that contains 5′ and 3′ untranslated sequences from the Xenopus β-actin gene. These sequences increase RNA stability and protein expression. Plasmid cDNA was linearized and used as template for in vitro transcription (Epicentre Technologies transcription kit, 4:1 methylated:non-methylated guanosine triphosphate(GTP)).
Xenopus oocyte isolation. Xenopus laevis frogs were anesthetized by immersion in Tricaine ([…] in deionized water) for 15 min. […]
Electrophysiology measurements. Transport currents were measured 2-14 days after injection, using a standard two-electrode electrophysiology set-up (Geneclamp 500 amplifier, Digidata 1320/PCLAMP software and ADInstruments hardware and software were used for signal acquisition). […]

hSMVT = target: T2, hSMVT (Homo sapiens, UniProt Q9Y289); assay: Radiolabeled competition assay in SMVT-expressing CHO cells; type: cell-based; conditions: radiolabeled competition assay in SMVT-expressing CHO cells; read-out: IC50
T2 sequence (Q9Y289 1-635): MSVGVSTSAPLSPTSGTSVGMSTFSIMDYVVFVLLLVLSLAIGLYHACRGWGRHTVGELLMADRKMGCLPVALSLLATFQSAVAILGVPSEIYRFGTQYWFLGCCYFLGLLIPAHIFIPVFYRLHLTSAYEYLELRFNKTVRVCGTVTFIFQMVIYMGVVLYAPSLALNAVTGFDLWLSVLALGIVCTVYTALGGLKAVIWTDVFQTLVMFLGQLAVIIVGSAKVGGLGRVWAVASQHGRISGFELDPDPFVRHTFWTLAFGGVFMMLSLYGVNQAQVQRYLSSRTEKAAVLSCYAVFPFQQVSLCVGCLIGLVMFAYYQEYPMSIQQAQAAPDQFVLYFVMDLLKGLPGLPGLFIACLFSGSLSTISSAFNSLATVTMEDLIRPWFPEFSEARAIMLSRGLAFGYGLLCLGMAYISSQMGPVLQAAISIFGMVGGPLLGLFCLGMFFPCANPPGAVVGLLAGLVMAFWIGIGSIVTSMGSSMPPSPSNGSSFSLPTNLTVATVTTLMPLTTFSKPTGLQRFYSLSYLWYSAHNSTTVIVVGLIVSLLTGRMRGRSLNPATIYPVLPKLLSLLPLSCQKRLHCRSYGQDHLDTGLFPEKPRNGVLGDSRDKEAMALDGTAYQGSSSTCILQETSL
Text: The complete open reading frame of human ATBO+(SLC6A14) and SMVT (SLC5A6) were amplified from human cDNA prepared from liver or intestine mRNA. […] Amplified PCR products were cloned into a modified version of the mammalian expression vector pcDNA3 (termed pMO) that was engineered to contain the 5′ and 3′ untranslated regions from the Xenopus beta-globin gene. All clones were completely sequenced and tested for function by transient transfection in HEK293 cells.
For cell uptake studies, stable CHOK1 clones were seeded into polylysine coated 96-well microtitre plates and grown for 2-3 days. Cells were incubated with experimental solutions (combinations of radiolabeled and unlabeled compounds) for 30 minutes at room temperature, washed four times, and lysed in scintillation solution. Accumulation of radiolabeled molecules was measured in a microtitre scintillation plate reader (Perkin Elmer). Inhibition constants (IC50s) were calculated using curve-fitting software (Prism).

CC(C)(N)C(=O)NCC1(CC(=O)O)CCCCC1 [Compound V, a-aminoisobutyryl gabapentin]
Vmax relative to reference substrate Gly-Sar (human PEPT1; 1 mM, oocytes transfected with human PEPT1): 66%
Vmax relative to Gly-Sar in the presence of PEPT inhibitor Lys(ε-Dansyl)-Leu (human PEPT1; human PEPT transfected oocytes, with Lys(ε-Dansyl)-Leu): < 5%
IC50 (hSMVT): 320 µM

Source: patent US20030158254A1, “Engineering absorption of therapeutic compounds via colonic transporters” (XenoPort, Inc., priority 2002, published 2003)
